{
  "source": "patent US20040081663A1",
  "about": "“Pharmaceutical composition for treatment and prevention of cancer and the preparation thereof” (priority 2002, published 2004)",
  "test_system": "LLC1 tumor cells (Lewis lung cancer cell line)",
  "test": "Lewis lung (LLC) peritoneal carcinomatosis model, tumor resistance test",
  "assay_type": "in vivo, C57BL/6J mice",
  "conditions": "for number of mice with tumors: 5 mice per group, 26th day, control: all mice; for average size of tumors (width times length): injected daily for 13 days, sacrificed on 26th day, control 12.38",
  "excerpt": "Lewis lung (LLC) peritoneal carcinomatosis model was used for treatment and prevention of cancer in vivo animal tests, referring to Bertram J S, Janik P., Cancer Lett 1980 November;11(1):63-73; Hirazumi A, Furusawa E. Phytother Res. 1999 August;13(5):380-7; Itoh H, Noda H, Amano H, Ito H. Anticancer Res. 1995 September-October;15(5B):1937-47; Wallace P K, Morahan P S., J Leukoc Biol. 1994 July;56(1) :41-51.; Redmond HP, Schuchter L, Bartlett D, Kelly C J, Shou J, Leon P, Daly J M. , J Surg Res. 1992 April;52(4):406-11; Kagawa K, Yamashita T, Tsubura E, Yamamura Y., Cancer Res. 1984 February;44(2):665-70; and Yamamoto T, Yamashita T, Tsubura E., Invasion Metastasis. 1981; 1(1) :71-84.\nTwenty male C57BL/6J mice of two month old were separated into four groups for 5 mice/each. Each mouse was inoculated with 1×10^5 LLC1 tumor cells (Lewis lung cancer cell line) by abdominal injection around the thigh on the first day, i.e. day 0. Each group of mice was treated differently for 13 days as described below and treatment was stopped for 12 days. The mice were sacrificed on the 26th day. The abdomen of each mouse was dissected to examine the tumor size. The size of tumor was defined as width times length.\n5 mice were used as the control group. The mice in the control group were injected daily with 100 microliters of saline with propylene glycol (3.05 μl propylene glycol in 100 ml normal saline) for 13 days. The treatment was stopped for 12 days and the mice were sacrificed on the 26th day after inoculation with LLC1 tumor cells. All mice had tumors with an average size of 12.38.\nAuthentic lovastatin sample was prepared and dissolved in saline with […] as indicated above. The dose amount for administration was adjusted according to mice body weight. The dose amount indicated was the proportional equivalent of lovastatin for human subjects of 60 Kg body weight.\nFive C57BL/6J mice were inoculated with 1×10^5 LLC1 cells on day 0 as described above. Lovastatin equivalent of 80 mg/person was injected daily on the other side of the abdomen every day for 13 days. The treatment was stopped for 12 days and the mice were sacrificed on the 26th day after inoculation of LLC1 tumor cells. All mice had tumors with an average size of 9.96.\nThe same procedures of L80 were followed except that the dose amount for administration was changed to 200 mg/day/person equivalent. Three mice had tumors with an average size of 6.8.\nThe liquid fermentation product obtained from sample 2 was centrifuged 10,000 rpm for 20 minutes. The supernatant was collected and further filtrated with a 0.2 micron filter in sterile condition. The concentration of lovastatin in the derived filtrate was detected as 0.45 mg/ml. The dose amount for administration was adjusted according to mice body weight. The equivalent amount of lovastatin for human subjects was used for mice tumor resistance tests as indicated.\nThe same procedures of example L80 were followed except that the sample was Monascus composition. The dose amount for administration was equivalent to 80 mg lovastatin/day/person. The filtrate was administrated in the ratio of 60 μl filtrate to 40 μl saline.\nThe same procedures of example M80 were followed except that the administration sample was Monascus composition. The dose amount for administration was equivalent to 200 mg lovastatin/day/person. The filtrate was administrated in the ratio of 60 μl filtrate to 40 μl saline.",
  "key": {"[1]": {"conditions": "dose equivalent to 80 mg lovastatin/day/person"}, "[2]": {"conditions": "dose equivalent to 200 mg lovastatin/day/person"}},
  "data": [
    {"smiles": "CC[C@H](C)C(=O)O[C@H]1C[C@@H](C)C=C2C=C[C@H](C)[C@H](CC[C@@H]3C[C@@H](O)CC(=O)O3)[C@H]21", "note": "[Lovastatin, lovastatin]", "values": [
      {"measurement": "number of mice with tumors", "setting": "[1]", "result": "All"},
      {"measurement": "average size of tumors (width times length)", "setting": "[1]", "result": 9.96},
      {"measurement": "number of mice with tumors", "setting": "[2]", "result": "Three"},
      {"measurement": "average size of tumors (width times length)", "setting": "[2]", "result": 6.8},
      {"measurement": "tumor size (FIG. 6), in words", "setting": "higher dose of lovastatin (L200) and Monascus compositions M80 and M200", "result": "smaller tumor sizes"}
    ]}
  ]
}
